The target in experiment [1] is hPARG (C-terminal His6-tag) (Homo sapiens (Human), UniProt Q86W56). Put plainly: PARG Enzymatic Activity Assay (HTRF). In kind it is biochemical. To be noted: hPARG 65 pM final, biotinylated-NAD ribosylated PARP1 8 nM final. An outline of the steps: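 Readout is time-resolved fluorescence at 620 and 665 nm after 60 min RT detection with streptavidin-Eu cryptate and anti-6HIS-XL665; IC50 by 4-parameter fit, 1% DMSO and no-enzyme controls. Reaction: 8 nM final ribosylated PARP1 substrate for 10 min RT, following 60 min RT enzyme (65 pM)–compound preincubation in Tris pH 7.4 buffer with EDTA, DTT, KCl.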
hPARG (C-terminal His6-tag), sequence (Q86W56 whole entry): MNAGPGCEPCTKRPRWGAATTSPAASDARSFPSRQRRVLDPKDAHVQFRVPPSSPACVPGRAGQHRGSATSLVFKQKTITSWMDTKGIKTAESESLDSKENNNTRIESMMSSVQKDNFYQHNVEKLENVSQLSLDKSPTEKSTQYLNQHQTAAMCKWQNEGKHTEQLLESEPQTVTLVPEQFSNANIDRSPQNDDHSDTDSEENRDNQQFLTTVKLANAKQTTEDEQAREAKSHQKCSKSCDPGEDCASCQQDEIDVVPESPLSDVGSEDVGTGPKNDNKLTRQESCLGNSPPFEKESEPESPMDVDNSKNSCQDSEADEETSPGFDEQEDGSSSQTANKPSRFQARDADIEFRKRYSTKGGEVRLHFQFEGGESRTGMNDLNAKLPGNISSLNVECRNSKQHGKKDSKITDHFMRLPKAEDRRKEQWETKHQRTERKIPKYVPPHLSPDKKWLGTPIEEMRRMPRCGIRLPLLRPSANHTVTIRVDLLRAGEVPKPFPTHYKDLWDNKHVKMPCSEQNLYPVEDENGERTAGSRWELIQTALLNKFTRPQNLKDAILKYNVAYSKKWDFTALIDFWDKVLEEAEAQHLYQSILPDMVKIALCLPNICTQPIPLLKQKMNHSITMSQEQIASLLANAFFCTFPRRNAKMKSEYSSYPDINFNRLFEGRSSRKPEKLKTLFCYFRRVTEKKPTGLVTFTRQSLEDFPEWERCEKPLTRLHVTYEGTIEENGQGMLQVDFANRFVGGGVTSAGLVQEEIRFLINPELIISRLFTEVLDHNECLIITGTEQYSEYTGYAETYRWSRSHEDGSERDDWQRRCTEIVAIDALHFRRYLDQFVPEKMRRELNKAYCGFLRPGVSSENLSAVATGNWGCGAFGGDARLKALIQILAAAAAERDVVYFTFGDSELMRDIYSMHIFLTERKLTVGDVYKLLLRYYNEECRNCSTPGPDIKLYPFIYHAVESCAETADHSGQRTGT

The next experiment deals with Kuramochi cell line. Put plainly: Cell Viability Assay (Cell Titer-Glo, 7 days). In kind it is cell-based. To be noted: 168 h, Kuramochi cells, 7 days incubation, read-out: PARG Cell viability (IC50). An outline of the steps: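 IC50 from a four-parameter fit of CellTiter-Glo luminescence, scaled between DMSO-treated (high) and medium-only (low) wells. Kuramochi cells (400/well, RPMI/10% FBS) exposed 7 days at 37 °C to 9 concentrations, 3-fold steps, in duplicate.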
A general note: ATP-based viability assays read luminescence as a measure of living cells.

For 21 compounds, IC50 results are on record in patent US20250388589A1, “TRICYCLIC HETEROCYCLIC DERIVATIVES, COMPOSITIONS AND USES THEREOF” (Danatlas Pharmaceuticals Co., Ltd., priority 2022, published 2025).

As usually defined, the IC50 is the point on the concentration scale where inhibition reaches its midpoint. Turning to `N#CC1(NS(=O)(=O)c2ccc3c4c(N5CC[C@@H](O)[C@@H](F)C5)ncnc4n(-c4nnc(C(F)F)s4)c3c2)CC1` [Example 174, N-(1-cyanocyclopropyl)-9-(5-(difluoromethyl)-1,3,4-thiadiazol-2-yl)-4-((3S,4R)-3-fluoro-4-hydroxypiperidin-1-yl)-9H-pyrimido[4,5-b]indole-7-sulfonamide], the IC50 (in experiment [1]; with Kuramochi cell line) was less than 0.1 µM throughout.
As for `CN(C)C1CCN(c2ncnc3c2c2ccc(S(=O)(=O)NC4(C#N)CC4)cc2n3-c2nnc(C(F)F)s2)C[C@@H]1F` (stereo partly drawn) [Example 175, N-(1-cyanocyclopropyl)-9-(5-(difluoromethyl)-1,3,4-thiadiazol-2-yl)-4-((3S)-4-(dimethylamino)-3-fluoropiperidin-1-yl)-9H-pyrimido[4,5-b]indole-7-sulfonamide], the IC50 (in experiment [1]; with Kuramochi cell line) was less than 0.1 µM in each case.
With `N#CC1(NS(=O)(=O)c2ccc3c4c(N5CC6CC(C5)O6)ncnc4n(-c4nnc(C(F)F)s4)c3c2)CC1` [Example 176, 4-(6-oxa-3-azabicyclo[3.1.1]heptan-3-yl)-N-(1-cyanocyclopropyl)-9-(5-(difluoromethyl)-1,3,4-thiadiazol-2-yl)-9H-pyrimido[4,5-b]indole-7-sulfonamide], the concentration for half-maximal inhibition (IC50) (in experiment [1]; in the experiment on Kuramochi cell line) was less than 0.1 µM in each case.
As to `N#CC1(NS(=O)(=O)c2ccc3c4c(N5C[C@@H]6C[C@H]5CO6)ncnc4n(-c4nnc(C(F)F)s4)c3c2)CC1` [Example 177, 4-((1S,4S)-2-oxa-5-azabicyclo[2.2.1]heptan-5-yl)-N-(1-cyanocyclopropyl)-9-(5-(difluoromethyl)-1,3,4-thiadiazol-2-yl)-9H-pyrimido[4,5-b]indole-7-sulfonamide], the IC50 (in experiment [1]; in the experiment on Kuramochi cell line) was less than 0.1 µM throughout.
Take `COCCN1CCN(c2ncnc3c2c2ccc(S(=O)(=O)NC4(C#N)CC4)cc2n3-c2nnc(C(F)F)s2)C[C@@H]1C` [Example 178, (S)-N-(1-cyanocyclopropyl)-9-(5-(difluoromethyl)-1,3,4-thiadiazol-2-yl)-4-(4-(2-methoxyethyl)-3-methylpiperazin-1-yl)-9H-pyrimido[4,5-b]indole-7-sulfonamide]: the IC50 (in experiment [1]; in the experiment on Kuramochi cell line) was less than 0.1 µM each time.
On to `CN(C)C(=O)C1CCN(c2ncnc3c2c2ccc(S(=O)(=O)NC4(C#N)CC4)cc2n3-c2nnc(C(F)F)s2)CC1` [Example 179, 1-(7-(N-(1-Cyanocyclopropyl)sulfamoyl)-9-(5-(difluoromethyl)-1,3,4-thiadiazol-2-yl)-9H-pyrimido[4,5-b]indol-4-yl)-N,N-dimethylpiperidine-4-carboxamide], for which the concentration for half-maximal inhibition (IC50) (in experiment [1]; with Kuramochi cell line) was less than 0.1 µM each time.
Regarding `CC(C)N1CCN(c2ncnc3c2c2ccc(S(=O)(=O)NC4(C#N)CC4)cc2n3-c2nnc(C(F)F)s2)CC1=O` [Example 180, N-(1-Cyanocyclopropyl)-9-(5-(difluoromethyl)-1,3,4-thiadiazol-2-yl)-4-(4-isopropyl-3-oxopiperazin-1-yl)-9H-pyrimido[4,5-b]indole-7-sulfonamide], the IC50 (in experiment [1]; in the experiment with Kuramochi cell line) was less than 0.1 µM each time.
As to `N#CC1(NS(=O)(=O)c2ccc3c4c(N5CCc6cc(CO)cnc6C5)ncnc4n(-c4nnc(C(F)F)s4)c3c2)CC1` [Example 181, N-(1-Cyanocyclopropyl)-9-(5-(difluoromethyl)-1,3,4-thiadiazol-2-yl)-4-(3-(hydroxymethyl)-5,8-dihydro-1,7-napthyridin-7(6H)-yl)-9H-pyrimido[4,5-b]indole-7-sulfonamide], the IC50 was less than 0.1 µM in experiment [1] and 0.1 to 1 µM in the experiment on Kuramochi cell line.
In the case of `N#CC1(NS(=O)(=O)c2ccc3c4c(N5CCC6(CCCO6)CC5)ncnc4n(-c4nnc(C(F)F)s4)c3c2)CC1` [Example 182, N-(1-Cyanocyclopropyl)-9-(5-(difluoromethyl)-1,3,4-thiadiazol-2-yl)-4-(1-oxa-8-azaspiro[4.5]decan-8-yl)-9H-pyrimido[4,5-b]indole-7-sulfonamide], the half-maximal inhibitory concentration (IC50) (in experiment [1]; with Kuramochi cell line) was less than 0.1 µM throughout.
In the case of `N#CC1(NS(=O)(=O)c2ccc3c4c(N5CCC6(CCOC6)CC5)ncnc4n(-c4nnc(C(F)F)s4)c3c2)CC1` [Example 183, N-(1-Cyanocyclopropyl)-9-(5-(difluoromethyl)-1,3,4-thiadiazol-2-yl)-4-(2-oxa-8-azaspiro[4.5]decan-8-yl)-9H-pyrimido[4,5-b]indole-7-sulfonamide], the concentration for half-maximal inhibition (IC50) (in experiment [1]; in the experiment on Kuramochi cell line) was less than 0.1 µM throughout.
In the case of `CC1(NS(=O)(=O)c2ccc3c4c(N5CCN6CCOC[C@H]6C5)ncnc4n(-c4nnc(C(F)F)s4)c3c2)CC1` [Example 184, (R)-9-(5-(Difluoromethyl)-1,3,4-thiadiazol-2-yl)-4-(hexahydropyrazino[2,1-c][1,4]oxazin-8(1H)-yl)-N-(1-methylcyclopropyl)-9H-pyrimido[4,5-b]indole-7-sulfonamide], the IC50 in experiment [1] was less than 0.1 µM; in the experiment with Kuramochi cell line, 0.1 to 1 µM.
On the same counts, the results for `Cc1nnc(-n2c3cc(S(=O)(=O)NC4(C#N)CC4)ccc3c3c(N4CCN(C(=O)C5CC5)CC4)ncnc32)s1` [Example 185, N-(1-Cyanocyclopropyl)-4-(4-(cyclopropanecarbonyl)piperazin-1-yl)-9-(5-methyl-1,3,4-thiadiazol-2-yl)-9H-pyrimido[4,5-b]indole-7-sulfonamide] are 0.1 to 1 µM and 0.1 to 1 µM.
For `CC(C)c1nnc(-n2c3cc(S(=O)(=O)NC4(C#N)CC4)ccc3c3c(N4CCN(C(=O)C5CC5)CC4)ncnc32)s1` [Example 186, N-(1-Cyanocyclopropyl)-4-(4-(cyclopropanecarbonyl)piperazin-1-yl)-9-(5-isopropyl-1,3,4-thiadiazol-2-yl)-9H-pyrimido[4,5-b]indole-7-sulfonamide], in that order: 0.1 to 1 µM and 0.1 to 1 µM.
Consider `N#CC1(NS(=O)(=O)c2ccc3c4c(N5CCN(C(=O)C6CC6)CC5)ncnc4n(-c4nnc(C(F)(F)F)s4)c3c2)CC1` [Example 188, N-(1-Cyanocyclopropyl)-4-(4-(cyclopropanecarbonyl)piperazin-1-yl)-9-(5-(trifluoromethyl)-1,3,4-thiadiazol-2-yl)-9H-pyrimido[4,5-b]indole-7-sulfonamide], for which the values for the 50% inhibitory concentration (IC50) (in experiment [1]; in the experiment with Kuramochi cell line) were less than 0.1 µM and 0.1 to 1 µM, respectively.
On to `N#CC1(NS(=O)(=O)c2ccc3c4c(N5CCC(O)CC5)ncnc4n(-c4nnc(C(F)F)s4)c3c2)CC1` [Example 189, N-(1-Cyanocyclopropyl)-9-(5-(difluoromethyl)-1,3,4-thiadiazol-2-yl)-4-(4-hydroxypiperidin-1-yl)-9H-pyrimido[4,5-b]indole-7-sulfonamide], for which the half-inhibitory concentration (IC50) (in experiment [1]; with Kuramochi cell line) was less than 0.1 µM throughout.
For `CC(C)C(=O)N1[C@H](C)CN(c2ncnc3c2c2ccc(S(=O)(=O)NC4(C)CC4)cc2n3-c2nnc(C(F)F)s2)C[C@@H]1C` [Example 190, 9-(5-(Difluoromethyl)-1,3,4-thiadiazol-2-yl)-4-((3R,5S)-4-isobutyryl-3,5-dimethylpiperazin-1-yl)-N-(1-methylcyclopropyl)-9H-pyrimido[4,5-b]indole-7-sulfonamide], the concentration for half-maximal inhibition (IC50) (in experiment [1]; in the experiment on Kuramochi cell line) was less than 0.1 µM each time.
Regarding `N#CC1(NS(=O)(=O)c2ccc3c4c(N5CCC(O)(C(F)(F)F)CC5)ncnc4n(-c4nnc(C(F)F)s4)c3c2)CC1` [Example 191, N-(1-Cyanocyclopropyl)-9-(5-(difluoromethyl)-1,3,4-thiadiazol-2-yl)-4-(4-hydroxy-4-(trifluoromethyl)piperidin-1-yl)-9H-pyrimido [4,5-b]indole-7-sulfonamide], the concentration for half-maximal inhibition (IC50) (in experiment [1]; in the experiment on Kuramochi cell line) was less than 0.1 µM in each case.
For `Cc1nc(N2CCN3CCOC[C@H]3C2)c2c3ccc(S(=O)(=O)NC4(C#N)CC4)cc3n(-c3nnc(C(F)F)s3)c2n1` [Example 192, (R)—N-(1-Cyanocyclopropyl)-9-(5-(difluoromethyl)-1,3,4-thiadiazol-2-yl)-4-(hexahydropyrazino[2,1-c][1,4]oxazin-8(1H)-yl)-2-methyl-9H-pyrimido[4,5-b]indole-7-sulfonamide], the IC50 in experiment [1] was 0.1 to 1 µM; with Kuramochi cell line, less than 0.1 µM.
For `C[C@@H]1CN(C)[C@@H](C)CN1c1ncnc2c1c1ccc(S(=O)(=O)NC3(C#N)CC3)cc1n2-c1nnc(C(F)F)s1` [Example 193, N-(1-Cyanocyclopropyl)-9-(5-(difluoromethyl)-1,3,4-thiadiazol-2-yl)-4-((2R,5S)-2,4,5-trimethylpiperazin-1-yl)-9H-pyrimido[4,5-b]indole-7-sulfonamide], in that order: less than 0.1 µM and less than 0.1 µM.
For `CN(C)C(=O)N1CC=C(c2ccnc3c2c2ccc(S(=O)(=O)NC4(C)CC4)cc2n3-c2nnc(C(F)F)s2)CC1` [Example 194, 4-(9-(5-(Difluoromethyl)-1,3,4-thiadiazol-2-yl)-7-(N-(1-methylcyclopropyl)sulfamoyl)-9H-pyrido[2,3-b]indol-4-yl)-N,N-dimethyl-3,6-dihydropyridine-1(2H)-carboxamide], in that order: 0.1 to 1 µM and 0.1 to 1 µM.
For `CN(C)C(=O)N1CCC(c2ccnc3c2c2ccc(S(=O)(=O)NC4(C)CC4)cc2n3-c2nnc(C(F)F)s2)CC1` [Example 195, 4-(9-(5-(Difluoromethyl)-1,3,4-thiadiazol-2-yl)-7-(N-(1-methylcyclopropyl)sulfamoyl)-9H-pyrido[2,3-b]indol-4-yl)-N,N-dimethylpiperidine-1-carboxamide], in that order: less than 0.1 µM and 0.1 to 1 µM.
